From US20160113921A1, “COMBINATION THERAPY COMPRISING OXAZOLIDINONE-QUINOLONES FOR USE IN TREATING BACTERIAL INFECTIONS” (MORPHOCHEM AKTIENGESELLSCHAFT FÜR KOMBINATORISCHE CHEMIE, priority 2013, published 2016)
≈ marks a conversion by molar mass, not a printed value. Where two headings read alike, the source gives them in different places.

Legend:
Format in all cases: cell-based
[1] = test system: S. aureus DSM 11823, clone 16 (MSSA, quinolone-resistant); assay: microbe, parasite or virus in culture; settings: Staphylococcus aureus
Description: (§1) MIC-testing was done immediately after preparation of the dilutions. All tests were done in duplicate and repeated once on a separate occasion.
(§2) 1 mL of the bacterial suspension was transferred into a tube containing 10 mL CAMHB and was vortexed thoroughly. (S. pneumoniae 1 mL in 10 mL CAMHB+5% lysed horse blood). Columns 1-15 of the 96-well plate were inoculated with 5 μL of this suspension (1-15=antibacterial solution, 16=sterile medium without test item).
(§3) Turbidity was read visually with a mirror.

[2] = test system: S. pneumoniae ATCC 33400; assay: MIC, broth microdilution (CLSI), CAMHB; settings: Streptococcus pneumoniae; monosubstance; Spn ATCC33400; read-out: MIC
Description: as §1, §2, §3

[3] = test system: S. aureus ATCC 29213; assay: MIC, broth microdilution (CLSI), CAMHB; settings: Staphylococcus aureus; monosubstance; Sa ATCC29213; read-out: MIC
Description: as §1, §2, §3

[4] = test system: E. faecalis ATCC 29212; assay: MIC, broth microdilution (CLSI), CAMHB; settings: Enterococcus faecalis; monosubstance; Ef ATCC29212; read-out: MIC
Description: as §1, §2, §3

[5] = test system: S. aureus Visa Mu 50 (MRSA, vancomycin intermediate susceptible); assay: MIC, broth microdilution (CLSI), CAMHB; settings: Staphylococcus aureus; monosubstance; Sa VisaMu50; read-out: MIC
Description: as §1, §2, §3

[6] = test system: S. aureus NRS-119 (MRSA, linezolid- and quinolone-resistant); assay: MIC, broth microdilution (CLSI), CAMHB; settings: Staphylococcus aureus
Description: as §1, §2, §3

[7] = test system: E. faecium DSMZ 2146; assay: MIC, broth microdilution (CLSI), CAMHB; settings: Enterococcus faecium
Description: as §1, §2, §3

[8] = test system: S. pneumoniae BAY 19397 (penicillin-, macrolide-, quinolone-resistant); assay: MIC, broth microdilution (CLSI), CAMHB; settings: Streptococcus pneumoniae, monosubstance; Spn 19397; read-out: MIC
Description: as §1, §2, §3

[9] = test system: E. faecalis V583 (VanB); assay: MIC, broth microdilution (CLSI), CAMHB; settings: Enterococcus faecalis; monosubstance; Ef V583; read-out: MIC
Description: as §1, §2, §3

[10] = test system: S. aureus ATCC 33593 (MRSA); assay: MIC, broth microdilution (CLSI), CAMHB; settings: Staphylococcus aureus; monosubstance; Sa ATCC33593; read-out: MIC
Description: as §1, §2, §3

[11] = test system: E. faecium UW 3695 (linezolid and quinolone-resistant); assay: MIC, broth microdilution (CLSI), CAMHB; settings: Enterococcus faecium; monosubstance; Efc UW3695; read-out: MIC
Description: as §1, §2, §3

[12] = test system: Gram-negative test strains (Enterobacteriaceae, non-fermenters); assay: MIC testing, statements on the Gram-negative strain panel
Source text: as §1

[13] = test system: K. pneumoniae NRZ-00002 (OXA-48); assay: MIC, broth microdilution (CLSI), CAMHB; settings: Klebsiella pneumoniae; monosubstance; Kp NRZ00002; read-out: MIC
Description: as §1, §2, §3

[14] = test system: K. pneumoniae ATCC 13883; assay: MIC, broth microdilution (CLSI), CAMHB; settings: Klebsiella pneumoniae; monosubstance; Kp ATCC13883; read-out: MIC
Description: as §1, §2, §3

[15] = test system: P. mirabilis ATCC 9240; assay: MIC, broth microdilution (CLSI), CAMHB; settings: Proteus mirabilis; monosubstance; Pm ATCC9240; read-out: MIC
Description: as §1, §2, §3

[16] = test system: E. coli GNS-2601 (ESBL CTX-M-15); assay: MIC, broth microdilution (CLSI), CAMHB; settings: Escherichia coli
Description: as §1, §2, §3

[17] = test system: E. coli ATCC 25922; assay: MIC, broth microdilution (CLSI), CAMHB; settings: Escherichia coli; monosubstance; Ec ATCC25922; read-out: MIC
Description: as §1, §2, §3

[18] = test system: E. coli NRZ-00302 (metallo β-lactamase NDM-1); assay: MIC, broth microdilution (CLSI), CAMHB; settings: Escherichia coli
Description: as §1, §2, §3

[19] = test system: E. coli NRZ-00401 (metallo β-lactamase VIM-1); assay: MIC, broth microdilution (CLSI), CAMHB; settings: Escherichia coli; monosubstance; Ec NRZ00401; read-out: MIC
Description: as §1, §2, §3

[20] = test system: E. cloacae ATCC 13047; assay: MIC, broth microdilution (CLSI), CAMHB; settings: Enterobacter cloacae; monosubstance; Ecl ATCC13047; read-out: MIC
Description: as §1, §2, §3

[21] = test system: P. aeruginosa NRZ-00425 (VIM-1); assay: MIC, broth microdilution (CLSI), CAMHB; settings: Pseudomonas aeruginosa
Description: as §1, §2, §3

[22] = test system: P. aeruginosa ATCC 10145; assay: MIC, broth microdilution (CLSI), CAMHB; settings: Pseudomonas aeruginosa; monosubstance; Pa ATCC10145; read-out: MIC
Description: as §1, §2, §3

[23] = test system: E. cloacae NRZ-00239 (VIM-1); assay: MIC, broth microdilution (CLSI), CAMHB; settings: Enterobacter cloacae; monosubstance; Ecl NRZ00239; read-out: MIC
Description: as §1, §2, §3

[24] = test system: K. pneumoniae NRZ-00535 (VIM-1); assay: MIC, broth microdilution (CLSI), CAMHB; settings: Klebsiella pneumoniae
Description: as §1, §2, §3

[25] = test system: P. mirabilis NRZ-00185 (AmpC, type CMY-2); assay: MIC, broth microdilution (CLSI), CAMHB; settings: Proteus mirabilis
Description: as §1, §2, §3

[26] = test system: K. pneumoniae NRZ-00103 (KPC-2); assay: MIC, broth microdilution (CLSI), CAMHB; settings: Klebsiella pneumoniae
Description: as §1, §2, §3

| Compound | MIC [1] [mg/L] | MIC [2] [mg/L] | MIC [3] [mg/L] | MIC [4] [mg/L] | MIC [5] [mg/L] | MIC [8] [mg/L] | MIC [9] [mg/L] | MIC [10] [mg/L] | MIC [11] [mg/L] | MIC [13] [mg/L] | MIC [14] [mg/L] | MIC [15] [mg/L] | MIC [17] [mg/L] | MIC [19] [mg/L] | MIC [20] [mg/L] | MIC [22] [mg/L] | MIC [23] [mg/L] | also measured |
| --- | --- | --- | --- | --- | --- | --- | --- | --- | --- | --- | --- | --- | --- | --- | --- | --- | --- | --- |
| CC1(C)S[C@@H]2[C@H](NC(=O)[C@H](N)c3ccccc3)C(=O)N2[C@H]1C(=O)O [ampicillin] | 0.007 (≈ 0.02 µM) | 0.0075 (≈ 0.0215 µM) | 0.5 (≈ 1.43 µM) | 1 (≈ 2.86 µM) | 256 (≈ 733 µM) | 1 (≈ 2.86 µM) | 0.5 (≈ 1.43 µM) | 64 (≈ 183 µM) | 32 (≈ 91.6 µM) | – | – | – | – | – | – | – | – | MIC [6]: 128 mg/L (≈ 366 µM); MIC ([7]; DSMZ2146): 128 mg/L (≈ 366 µM) |
| CC(C)(O/N=C(\C(=O)N[C@@H]1C(=O)N2C(C(=O)[O-])=C(C[n+]3ccccc3)CS[C@H]12)c1csc(N)n1)C(=O)O [ceftazidime] | – | – | – | – | – | – | – | – | – | 64 (≈ 117 µM) | 0.25 (≈ 0.457 µM) | 0.5 (≈ 0.915 µM) | 0.03 (≈ 0.0549 µM) | 32 (≈ 58.5 µM) | 2 (≈ 3.66 µM) | 2 (≈ 3.66 µM) | 4 (≈ 7.32 µM) | MIC ([12]; E. coli, K. pneumoniae, and P. mirabilis wild type strains, read-out: MIC (inhibitory concentration)): < 0.5 mg/L; MIC ([12]; remainder / remaining / all other test strains, as worded for each agent, read-out: MIC): > 2 mg/L; MIC [16]: 128 mg/L (≈ 234 µM); MIC [18]: > 256 mg/L; MIC ([21]; monosubstance, Pa NRZ00425, read-out: MIC): 32 mg/L (≈ 58.5 µM); MIC [24]: > 256 mg/L; MIC [25]: 128 mg/L (≈ 234 µM); MIC [26]: > 256 mg/L |
| CO/N=C(\C(=O)N[C@@H]1C(=O)N2C(C(=O)O)=C(CSc3nc(=O)c(=O)[nH]n3C)CS[C@H]12)c1csc(N)n1 [ceftriaxone] | 4 (≈ 7.21 µM) | 0.0075 (≈ 0.0135 µM) | 4 (≈ 7.21 µM) | 0.5 (≈ 0.902 µM) | 16 (≈ 28.9 µM) | 4 (≈ 7.21 µM) | 0.5 (≈ 0.902 µM) | > 256 | 32 (≈ 57.7 µM) | – | – | – | – | – | – | – | – | MIC ([6]; monosubstance, Sa NRS119, read-out: MIC): > 256 mg/L; MIC ([7]; monosubstance, Efc DSMZ2146, read-out: MIC): 0.5 mg/L (≈ 0.902 µM) |
| C[C@@H](O)[C@H]1C(=O)N2C(C(=O)O)=C(SCCN=CN)C[C@H]12 [imipenem] | – | – | – | – | – | – | – | – | – | 2 (≈ 6.68 µM) | 0.25 (≈ 0.835 µM) | 1 (≈ 3.34 µM) | 0.03 (≈ 0.1 µM) | 4 (≈ 13.4 µM) | 0.25 (≈ 0.835 µM) | 0.5 (≈ 1.67 µM) | 0.25 (≈ 0.835 µM) | MIC ([12]; all the test strains except P. aeruginosa NRZ-00185 and K. pneumoniae NRZ-00103, read-out: MIC (inhibitory concentration)): < 8 mg/L; MIC ([16]; monosubstance, Ec GNS2601, read-out: MIC): 0.03 mg/L (≈ 0.1 µM); MIC ([18]; monosubstance, Ec NRZ00302, read-out: MIC): 4 mg/L (≈ 13.4 µM); MIC [21]: 128 mg/L (≈ 428 µM); MIC ([24]; monosubstance, Kp NRZ00535, read-out: MIC): 8 mg/L (≈ 26.7 µM); MIC ([25]; monosubstance, Pm NRZ00185, read-out: MIC): 1 mg/L (≈ 3.34 µM); MIC ([26]; monosubstance, Kp NRZ00103, read-out: MIC): 32 mg/L (≈ 107 µM) |
